# In patent US20230250106A1, “COMPOUNDS AND COMPOSITIONS FOR TREATING CONDITIONS ASSOCIATED WITH STING ACTIVITY” (IFM Due, Inc., priority 2020, published 2023):
# System: STING pathway
# Assay: STING reporter assay: luciferase reporter activity in THP1-Dual KO-IFNAR2 cells activated with 2'3'cGAMP
# Assay type: cell-based
# Details: Homo sapiens, 2'3'cGAMP 15 μM, 24 h, read-out: hSTING EC50
# Method: STING pathway activation by the compounds described herein was measured using THP1-Dual™ cells (KO-IFNAR2).
# THP1-Dual™ KO-IFNAR2 Cells (obtained from invivogen) were maintained in RPMI, 10% FCS, 5 ml P/S, 2 mM L-glut, 10 mM Hepes, and 1 mM sodium pyruvate. Compounds were spotted in empty 384 well tissue culture plates (Greiner 781182) by Echo for a final concentration of 0.0017-100 μM. Cells were plated into the TC plates at 40 μL per well, 2×10E6 cells/mL. For activation with STING ligand, 2′3′cGAMP (MW 718.38, obtained from Invivogen), was prepared in Optimem media.
# The following solutions were prepared for each 1×384 plate: • Solution A: 2 mL Optimem with one of the following stimuli: • 60 μL of 10 mM 2′3′cGAMP→150 μM stock • Solution B: 2 mL Optimem with 60 μL Lipofectamine 2000→Incubate 5 min at RT
# 2 mL of solution A and 2 ml Solution B was mixed and incubated for 20 min at room temperature (RT). 20 μL of transfection solution (A+B) was added on top of the plated cells, with a final 2′3′cGAMP concentration of 15 μM. The plates were then centrifuged immediately at 340 g for 1 minute, after which they were incubated at 37° C., 5% CO2,>98% humidity for 24 h. Luciferase reporter activity was then measured. EC50 values were calculated by using standard methods known in the art.
# Luciferase reporter assay: 10 μL of supernatant from the assay was transferred to white 384-plate with flat bottom and squared wells. One pouch of QUANTI-Luc™ Plus was dissolved in 25 mL of water. 100 μL of QLC Stabilizer per 25 mL of QUANTI-Luc™ Plus solution was added. 50 μL of QUANTI-Luc™ Plus/QLC solution per well was then added. Luminescence was measured on a Platereader (e.g., Spectramax I3X (Molecular Devices GF3637001)).
# Luciferase reporter activity was then measured. EC50 values were calculated by using standard methods known in the art.
row,SMILES,EC50 [nM]
1,"COCc1cccc(-n2cc(-c3ccc4[nH]cc(NC(=O)c5ccc(OCCCC(F)(F)F)cc5)c4c3)cn2)c1 [Compound 200, N-(5-(1-(3-(methoxymethyl)phenyl)-1H-pyrazol-4-yl)-1H-indol-3-yl)-4-(4,4,4-trifluorobutoxy)benzamide]",200 to 1000
2,"COCCCNc1ncc(C(=O)Nc2c[nH]c3cc(F)c(F)cc23)cc1C [Compound 103, N-(5,6-difluoro-1H-indol-3-yl)-6-((3-methoxypropyl)amino)-5-methylnicotinamide]",5000 to 100000
3,"O=C(Nc1c[nH]c2cc(F)c(F)cc12)c1cccc(OC(F)F)c1 [Compound 121, N-(5,6-difluoro-1H-indol-3-yl)-3-(difluoromethoxy)benzamide]",1000 to 5000
4,"O=C(Nc1c[nH]c2cc(F)c(F)cc12)c1ccc(OCCCC(F)(F)F)cn1 [Compound 139, N-(5,6-difluoro-1H-indol-3-yl)-5-(4,4,4-trifluorobutoxy)picolinamide]",200 to 1000
5,"O=C(Nc1c[nH]c2cc(F)c(F)cc12)c1cccc(NCCCC(F)(F)F)n1 [Compound 277, N-(5,6-difluoro-1H-indol-3-yl)-6-((4,4,4-trifluorobutyl)amino)picolinamide]",5000 to 100000
6,"O=C(Nc1c[nH]c2cc(F)c(F)cc12)c1ccnc(N2CC(F)(F)C2)c1Cl [Compound 252, 3-chloro-N-(5,6-difluoro-1H-indol-3-yl)-2-(3,3-difluoroazetidin-1-yl)isonicotinamide]",1000 to 5000
7,"O=C(Nc1c[nH]c2cc(F)c(F)cc12)c1ccc(OCCCC(F)(F)F)nc1 [Compound 138, N-(5,6-difluoro-1H-indol-3-yl)-6-(4,4,4-trifluorobutoxy)nicotinamide]",200 to 1000
8,"COCc1ccc(-n2cc(-c3ccc4[nH]cc(NC(=O)c5ccc(OCCCC(F)(F)F)cc5)c4c3)cn2)cc1 [Compound 162, N-(5-(1-(4-(methoxymethyl)phenyl)-1H-pyrazol-4-yl)-1H-indol-3-yl)-4-(4,4,4-trifluorobutoxy)benzamide]",40 to 200
9,"O=C(Nc1c[nH]c2cc(F)c(F)cc12)c1ccc(OCCN2CCCCC2)cc1 [Compound 129, N-(5,6-difluoro-1H-indol-3-yl)-4-[2-(piperidin-1-yl)ethoxy]benzamide]",1000 to 5000
10,"O=C(Nc1c[nH]c2cc(F)c(F)cc12)c1ccc(Cl)c(OCCCC(F)(F)F)c1 [Compound 170, 4-chloro-N-(5,6-difluoro-1H-indol-3-yl)-3-(4,4,4-trifluorobutoxy)benzamide]",200 to 1000
11,"O=C(Nc1c[nH]c2cc(F)c(F)cc12)c1cccc(NCCCC(F)(F)F)c1 [Compound 169, N-(5,6-difluoro-1H-indol-3-yl)-3-((4,4,4-trifluorobutyl)amino)benzamide]",200 to 1000
12,"O=C(Nc1c[nH]c2cc(F)c(F)cc12)c1ccnc(NC2CC(F)(F)C2)c1 [Compound 247, N-(5,6-difluoro-1H-indol-3-yl)-2-((3,3-difluorocyclobutyl)amino)isonicotinamide]",200 to 1000
13,"O=C(Nc1c[nH]c2cc(F)c(F)cc12)c1ccc(Oc2cccnc2)cc1 [Compound 118, N-(5,6-difluoro-1H-indol-3-yl)-4-(pyridin-3-yloxy)benzamide]",200 to 1000
14,"CC(C)Oc1ccc(C(=O)Nc2c[nH]c3cc(F)c(F)cc23)cn1 [Compound 265, N-(5,6-difluoro-1H-indol-3-yl)-6-(propan-2-yloxy)pyridine-3-carboxamide]",200 to 1000
15,"CC(C)Oc1ccc(C(=O)Nc2c[nH]c3cc(F)c(F)cc23)cc1 [Compound 128, N-(5,6-difluoro-1H-indol-3-yl)-4-isopropoxybenzamide]",200 to 1000
16,"Cc1nc(C(=O)Nc2c[nH]c3cc(F)c(F)cc23)cnc1OC1CC(F)(F)C1 [Compound 208, N-(5,6-difluoro-1H-indol-3-yl)-5-(3,3-difluorocyclobutoxy)-6-methylpyrazine-2-carboxamide]",200 to 1000
17,"O=C(Nc1c[nH]c2cc(F)c(F)cc12)c1ccc(OCC(F)(F)F)cc1 [Compound 152, N-(5,6-difluoro-1H-indol-3-yl)-4-(2,2,2-trifluoroethoxy)benzamide]",200 to 1000
18,"Cc1cc(C(=O)Nc2c[nH]c3cc(F)c(F)cc23)cnc1N1CC2(CCOC2)C1 [Compound 207, N-(5,6-difluoro-1H-indol-3-yl)-5-methyl-6-(6-oxa-2-azaspiro[3.4]octan-2-yl)nicotinamide]",1000 to 5000

# The next lines start with the values.
row,EC50 [nM],SMILES
1,200 to 1000,"O=C(Nc1c[nH]c2cc(F)c(F)cc12)c1ccnc(OC(F)F)c1 [Compound 106, N-(5,6-difluoro-1H-indol-3-yl)-2-(difluoromethoxy)pyridine-4-carboxamide]"
2,200 to 1000,"O=C(Nc1c[nH]c2cc(F)c(F)cc12)c1cc(Cc2ccc(C(F)(F)F)cc2)c(=O)[nH]n1 [Compound 105, N-(5,6-difluoro-1H-indol-3-yl)-6-oxo-5-(4-(trifluoromethyl)benzyl)-1,6-dihydropyridazine-3-carboxamide]"
3,200 to 1000,"COCCOc1cccc(C(=O)Nc2c[nH]c3cc(F)c(F)cc23)c1 [Compound 194, N-(5,6-difluoro-1H-indol-3-yl)-3-(2-methoxyethoxy)benzamide]"
4,200 to 1000,"N#Cc1cc(C(=O)Nc2c[nH]c3cc(F)c(F)cc23)cnc1N1CCC(F)(F)CC1 [Compound 107, 5-cyano-N-(5,6-difluoro-1H-indol-3-yl)-6-(4,4-difluoropiperidin-1-yl)nicotinamide]"
5,200 to 1000,"O=C(Nc1c[nH]c2cc(F)c(F)cc12)c1cnc(N2CCC(C(F)(F)F)C2)c(Cl)c1 (stereo not drawn) [Compound 189, 5-chloro-N-(5,6-difluoro-1H-indol-3-yl)-6-(3-(trifluoromethyl)pyrrolidin-1-yl)nicotinamide]"
6,200 to 1000,"O=C(Nc1c[nH]c2cc(F)c(F)cc12)c1ccc(OC(F)(F)C(F)F)cc1 [Compound 268, N-(5,6-difluoro-1H-indol-3-yl)-4-(1,1,2,2-tetrafluoroethoxy)benzamide]"
7,200 to 1000,"COCCOc1cc(C(=O)Nc2c[nH]c3cc(F)c(F)cc23)ccc1C(F)(F)F [Compound 232, N-(5,6-difluoro-1H-indol-3-yl)-3-(2-methoxyethoxy)-4-(trifluoromethyl)benzamide]"
8,200 to 1000,"O=C(Nc1c[nH]c2cc(F)c(F)cc12)c1cnc(C2CC(F)(F)C2)c(Cl)c1 [Compound 240, 5-chloro-N-(5,6-difluoro-1H-indol-3-yl)-6-(3,3-difluorocyclobutyl)nicotinamide]"
9,200 to 1000,"O=C(Nc1c[nH]c2cc(F)c(F)cc12)c1ccc(OC(F)(F)F)nc1 [Compound 197, N-(5,6-difluoro-1H-indol-3-yl)-6-(trifluoromethoxy)pyridine-3-carboxamide]"
10,40 to 200,"CC1(c2ncc(C(=O)Nc3c[nH]c4cc(F)c(F)cc34)cc2F)CCC(F)(F)CC1 [Compound 220, 6-(4,4-difluoro-1-methylcyclohexyl)-N-(5,6-difluoro-1H-indol-3-yl)-5-fluoronicotinamide]"
11,200 to 1000,"O=C(Nc1c[nH]c2cc(F)c(F)cc12)c1cccc(OC2CCCCC2)c1 [Compound 179, 3-(cyclohexyloxy)-N-(5,6-difluoro-1H-indol-3-yl)benzamide]"
12,200 to 1000,"O=C(Nc1c[nH]c2cc(F)c(F)cc12)c1ccc(OC(F)F)c(OCC2CC2)c1 [Compound 127, 3-(cyclopropylmethoxy)-N-(5,6-difluoro-1H-indol-3-yl)-4-(difluoromethoxy)benzamide]"
13,200 to 1000,"N#Cc1cc(C(=O)Nc2c[nH]c3ccc(Cl)cc23)cnc1N1CC(F)(F)C1 [Compound 271, N-(5-chloro-1H-indol-3-yl)-5-cyano-6-(3,3-difluoroazetidin-1-yl)nicotinamide]"
14,40 to 200,"O=C(Nc1c[nH]c2cc(F)c(F)cc12)c1cnc(N2C[C@@H]3[C@@H](COCC(F)(F)F)[C@@H]3C2)c(F)c1 [Compound 223, N-(5,6-difluoro-1H-indol-3-yl)-5-fluoro-6-((1R,5S,6r)-6-((2,2,2-trifluoroethoxy)methyl)-3-azabicyclo[3.1.0]hexan-3-yl)nicotinamide]"
15,200 to 1000,"O=C(Nc1c[nH]c2cc(F)c(F)cc12)c1ccc(CN2CC(F)(F)C2)c(F)c1 [Compound 181, N-(5,6-difluoro-1H-indol-3-yl)-4-((3,3-difluoroazetidin-1-yl)methyl)-3-fluorobenzamide]"
16,200 to 1000,"O=C(Nc1c[nH]c2cc(F)c(F)cc12)c1ccc(OCC(F)(F)F)cc1Cl [Compound 122, 2-chloro-N-(5,6-difluoro-1H-indol-3-yl)-4-(2,2,2-trifluoroethoxy)benzamide]"
17,200 to 1000,"CC(C)(C)OC(=O)N1CCC(Oc2ccc(C(=O)Nc3c[nH]c4cc(F)c(F)cc34)cc2)CC1 [Compound 249, tert-butyl 4-{4-[(5,6-difluoro-1H-indol-3-yl)carbamoyl]phenoxy}piperidine-1-carboxylate]"
18,200 to 1000,"O=C(Nc1c[nH]c2cc(F)c(F)cc12)c1ccc(C2CC(F)(F)C2)cc1 [Compound 108, N-(5,6-difluoro-1H-indol-3-yl)-4-(3,3-difluorocyclobutyl)benzamide]"
